Measured values taken from patent publication US20160038435A1 (Teva Pharmaceutical Industries Ltd., priority 2013, published 2016).
Values after ≈ are worked out from the molar mass of the structure shown. Structures can show the parent of a compound that is named as a salt. Blank lines part the entries; values can stand above or below the compound they belong to.

Assays:
[1] = Concentration of saturated donor solutions applied onto the skin; format: physicochemical
[2] = tested on: genes related to antigen presentation; details: mainly via the NFkB pathway; cited from earlier work
[3] = Saturation solubilities in solvents; format: physicochemical
Method: Saturation solubilities were measured in solvents typically used for incorporating of the drug into the pressure sensitive adhesives (PSA). Additional solubilities were measured in water, Phosphate buffered saline (PBS) Buffer (acceptor medium for skin permeation) and three different donor medium. All solubilities were measured at room temperature.

c of saturated solution ([1]; EtOH/Dodecanol 95/5, saturated solution containing solid API, listed as Laquinimod-Na): 1.17 mg/mL | c of saturated solution ([1]; EtOH/Oleic acid 85/15, saturated solution containing solid API, listed as Laquinimod-Na): 4.30 mg/mL | c of saturated solution ([1]; Propylene glycol (PG)/water 8/2, saturated solution containing solid API, listed as Laquinimod-Na): 10.00 mg/mL
Compound: CCN(C(=O)c1c(O)c2c(Cl)cccc2n(C)c1=O)c1ccccc1 [Laquinimod Sodium Salt, Laquinimod sodium]

Compound: CCN(C(=O)c1c(O)c2c(Cl)cccc2n(C)c1=O)c1ccccc1 [laquinimod]
effect on genes related to antigen presentation and inflammatory pathways [2]: induced suppression of genes related to antigen presentation and corresponding inflammatory pathways

Solubility ([3]; 2-Propanol, room temperature): 1662 µg/mL (≈ 4.66 mM) | Solubility ([3]; Acetone, room temperature): 4884 µg/mL (≈ 13.7 mM) | Solubility ([3]; Ethanol, room temperature): 4098 µg/mL (≈ 11.5 mM) | Solubility ([3]; Ethanol/Dodecanol (95:5), room temperature): 4209 µg/mL (≈ 11.8 mM) | Solubility ([3]; Ethanol/Oleic acid (85:15), room temperature): 4785 µg/mL (≈ 13.4 mM) | Solubility ([3]; Ethylacetate, room temperature): 3909 µg/mL (≈ 11 mM) | Solubility ([3]; PBS pH 7.4, room temperature): 1296 µg/mL (≈ 3.63 mM) | Solubility ([3]; Propylenglycol/water (80:20), room temperature): 1281 µg/mL (≈ 3.59 mM) | Solubility ([3]; Water, room temperature): 24 µg/mL (≈ 0.0673 mM) | Solubility ([3]; n-Heptane, room temperature): 0.6 µg/mL (≈ 0.00168 mM) | c of saturated solution ([1]; EtOH/Dodecanol 95/5, saturated solution containing solid API): 3.49 mg/mL | c of saturated solution ([1]; EtOH/Oleic acid 85/15, saturated solution containing solid API): 3.93 mg/mL | c of saturated solution ([1]; Propylene glycol (PG)/water 8/2, saturated solution containing solid API): 1.22 mg/mL
Compound: CCN(C(=O)c1c(O)c2c(Cl)cccc2n(C)c1=O)c1ccccc1 [Laquinimod free acid]
